The subject of data set [1] is Homo sapiens. The data set is described as follows: Antidiabetic activity in po dosed type 2 diabetes mellitus patient assessed as reduction in HbA1C level in intestine. Type of data set: functional. Also noted: scale not given: the % may be the effect or the level left.
The test system of data set [2] is Rattus norvegicus. The experiment in a line: Antidiabetic activity in normal Sprague-Dawley rat assessed as urinary glucose excretion at 3 mg/kg, po after 24 hrs. Type of data set: functional, Urine.
Data set [3] concerns Rattus norvegicus. The experiment in a line: Antidiabetic activity in normal Sprague-Dawley rat assessed as urinary glucose excretion at 10 mg/kg, po after 24 hrs. Type of data set: functional, Urine.
Data set [4] deals with Rattus norvegicus. The experiment in a line: Antidiabetic activity in normal Sprague-Dawley rat assessed as urinary glucose excretion at 30 mg/kg, po after 24 hrs. The format is functional, Urine.
Data set [5] concerns Homo sapiens. The data set is described as follows: Antidiabetic activity in normal human assessed as plasma glucose level at 500 mg, po after 4 hrs by OGTT. The format is functional.
In data set [6] the test system is Homo sapiens. The experiment in a line: Antidiabetic activity in over-weight subject assessed as reduction of body weight at […], po tid for 2 weeks. Type of data set: functional.
Data set [7] deals with Homo sapiens. The experiment in a line: Antidiabetic activity in normal human assessed as reduction urinary glucose excretion at 200 mg, po after 24 hrs. The format is functional, Urine.
Data set [8] has as its system Homo sapiens. The data set is described as follows: Antidiabetic activity in normal human assessed as reduction urinary glucose excretion at 500 mg, po after 24 hrs. The format is functional, Urine.
The subject of data set [9] is Rattus norvegicus. The experiment in a line: Antidiabetic activity in normal Sprague-Dawley rat assessed as urinary glucose excretion at 300 mg/kg, po after 24 hrs. The format is functional, Urine.
Data set [10] concerns Homo sapiens. The data set is described as follows: Antidiabetic activity in type 2 diabetes mellitus patient assessed as reduction in HbA1C level at 750 mg, po daily measured after 12 weeks. The format is functional. Also on record: scale not given: the % may be the effect or the level left.
Data set [11] is filed under the species Homo sapiens. The experiment in a line: Antidiabetic activity in type 2 diabetes mellitus patient assessed as reduction body weight. Type of data set: functional. Also noted: scale not given: the % may be the effect or the level left.
The test system of data set [12] is Rattus norvegicus. The data set is described as follows: Antidiabetic activity in normal Sprague-Dawley rat assessed as urinary glucose excretion at 100 mg/kg, po after 24 hrs. The format is functional, Urine.
The test system of data set [13] is Homo sapiens. The experiment in a line: Antidiabetic activity in po dosed type 2 diabetes mellitus patient assessed as reduction in HbA1C level in liver. Also noted: scale not given: the % may be the effect or the level left. The format is functional.
Data set [14] concerns Homo sapiens. The experiment in a line: Antidiabetic activity in po dosed type 2 diabetes mellitus patient assessed as reduction in HbA1C level in adipose tissue. The format is functional. Also on record: scale not given: the % may be the effect or the level left.
For data set [15], the system named is Homo sapiens. The data set is described as follows: Antidiabetic activity in po dosed type 2 diabetes mellitus patient assessed as reduction in HbA1C level in skeletal muscle. The format is functional, Muscle tissue. Also noted: scale not given: the % may be the effect or the level left.
Data set [16] has as its system Homo sapiens. The data set is described as follows: Antidiabetic activity in po dosed type 2 diabetes mellitus patient assessed as reduction in HbA1C level […]. Type of data set: functional. Also noted: scale not given: the % may be the effect or the level left.
In data set [17] the test system is Homo sapiens. The experiment in a line: Antidiabetic activity in po dosed type 2 diabetes mellitus patient assessed as reduction in HbA1C level in small intestine. Type of data set: functional. Also on record: scale not given: the % may be the effect or the level left.
Data set [18] concerns Rattus norvegicus. The experiment in a line: Antidiabetic activity in normal Sprague-Dawley rat assessed as urinary glucose excretion at 1 mg/kg, po after 24 hrs. Type of data set: functional, Urine.
For data set [19], the target named is T1, Sodium/glucose cotransporter 2 (Homo sapiens, UniProt P31639).
T1 sequence (P31639 whole entry): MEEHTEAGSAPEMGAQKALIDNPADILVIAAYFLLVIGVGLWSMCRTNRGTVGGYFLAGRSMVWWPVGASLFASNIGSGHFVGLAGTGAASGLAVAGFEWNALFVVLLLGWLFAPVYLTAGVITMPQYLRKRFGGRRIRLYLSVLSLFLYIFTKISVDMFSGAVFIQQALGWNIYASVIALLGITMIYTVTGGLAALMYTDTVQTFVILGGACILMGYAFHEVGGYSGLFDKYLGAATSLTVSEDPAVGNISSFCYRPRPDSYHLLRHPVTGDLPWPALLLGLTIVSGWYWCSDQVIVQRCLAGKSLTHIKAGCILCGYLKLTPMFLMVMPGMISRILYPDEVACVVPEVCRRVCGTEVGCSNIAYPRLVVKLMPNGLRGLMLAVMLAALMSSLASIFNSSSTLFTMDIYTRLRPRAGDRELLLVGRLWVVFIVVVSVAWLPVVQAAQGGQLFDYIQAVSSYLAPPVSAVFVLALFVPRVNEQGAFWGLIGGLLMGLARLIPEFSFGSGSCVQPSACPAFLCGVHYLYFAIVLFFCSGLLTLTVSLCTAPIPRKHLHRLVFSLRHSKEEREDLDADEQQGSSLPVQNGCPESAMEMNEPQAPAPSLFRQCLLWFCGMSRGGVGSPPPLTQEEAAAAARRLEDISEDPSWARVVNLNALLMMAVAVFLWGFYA
The experiment in a line: Inhibition of human kidney SGLT2 assessed as renal glucose reabsorption.

Data set [20] in a line: Half life in normal human at 10 to 100 mg/day, po administered as single ascending dose. The following applies: in vivo.
Data set [21] can be described thus: Clearance in normal human at 10 to 100 mg/day, po administered as single ascending dose. The following applies: in vivo.
Data set [22] in a line: clinical. The following applies: human, in vivo, po.
Data set [23] is filed under the species Homo sapiens. The experiment in a line: Selectivity for human SGLT2 over human SGLT1.

As for `N[C@@H](CC(=O)N1CCn2c(nnc2C(F)(F)F)C1)Cc1cc(F)c(F)cc1F` [SITAGLIPTIN], the Activity in data set [1] stood at 0.6%.
For `CCOC(=O)OC[C@H]1O[C@@H](Oc2ccccc2Cc2ccc(OC)cc2)[C@H](O)[C@@H](O)[C@@H]1O` [SERGLIFLOZIN ETABONATE], the Activity in data set [2] was 80 mg; in data set [3], 180 mg; in data set [4] it was 400 mg; in [5] it was 7 mmol·h/L; in data set [6], 1.5 kg; in data set [7] it was 12 g. Further, the Activity in data set [8] was determined as 17 g.
Consider `O=C(CCc1ccc(O)cc1)c1c(O)cc(O)cc1O[C@@H]1O[C@H](CO)[C@@H](O)[C@H](O)[C@H]1O` [PHLORIZIN], for which the Activity in [9] was 80 mg.
Turning to `C/N=C(\N)N(C)C(=N)N.Cl` [METFORMIN XR], the Activity in data set [10] was determined as 0.73%; in data set [11] it was 2.3%.
As for `COC(=O)OC[C@H]1O[C@@H](Oc2cc(C)cc(O)c2C(=O)CCc2ccc3occc3c2)[C@H](O)[C@@H](O)[C@@H]1O`, the Activity in data set [3] is 50 mg; in [4], 450 mg; in data set [12] it was 1000 mg; in [9] it was 2000 mg.
`CN(CCOc1ccc(CC2SC(=O)NC2=O)cc1)c1ccccn1` (stereo unspecified) [ROSIGLITAZONE]: the Activity in data set [13], in data set [14] and in data set [15] was 0.5% each time.
In the case of `C[C@H]1O[C@H](O[C@H]2[C@H](O)[C@@H](O)[C@@H](O[C@H]3[C@H](O)[C@@H](O)C(O)O[C@@H]3CO)O[C@@H]2CO)[C@H](O)[C@@H](O)[C@@H]1N[C@H]1C=C(CO)[C@@H](O)[C@H](O)[C@H]1O` (stereo partly specified) [ACARBOSE], the Activity in data set [16] and in data set [17] was 0.5% in each case.
With `CCOC(=O)OC[C@H]1O[C@@H](Oc2nn(C(C)C)c(C)c2Cc2ccc(OC(C)C)cc2)[C@H](O)[C@@H](O)[C@@H]1O` [REMOGLIFLOZIN ETABONATE], the Activity stood at 36 mg in data set [18], 95 mg in data set [2] and 320 mg in [3].
As to `CCc1ccc(Cc2ccccc2[C@@H]2O[C@H](CO)[C@@H](O)[C@H](O)[C@H]2O)cc1`, the half-maximal effective concentration (EC50) in data set [19] is more than 2 nM.
Regarding `CCC1=C(C)CN(C(=O)NCCc2ccc(S(=O)(=O)NC(=O)N[C@H]3CC[C@H](C)CC3)cc2)C1=O` [GLIMEPIRIDE], the Activity in data set [16] is reported as 1%.
In the case of `CN(C)C(=N)NC(=N)N` [METFORMIN], the Activity in data set [13], in data set [1] and in [16] was 1% throughout.
With `Cc1cc(O)c(C(=O)CCc2ccc3occc3c2)c(O[C@@H]2O[C@H](CO)[C@@H](O)[C@H](O)[C@H]2O)c1`, in data set [19], the half-inhibitory concentration (IC50) was 50 nM.
Regarding `CCOc1ccc(Cc2cc([C@@H]3O[C@H](CO)[C@@H](O)[C@H](O)[C@H]3O)ccc2Cl)cc1` [DAPAGLIFLOZIN], the Activity in [18] came out at 1100 mg. In addition, the half-life in data set [20] was 15 h. In data set [21], the CL/F was 6 mL/min. For the same compound, the time to peak (Tmax) in [22] amounted to 1 h.
As for `CCOc1cc(CC(=O)N[C@@H](CC(C)C)c2ccccc2N2CCCCC2)ccc1C(=O)O` [REPAGLINIDE], in data set [16], the Activity was 1%.
In the case of `Cc1c(Cc2ccc(OC(C)C)cc2)c(O[C@@H]2O[C@H](CO)[C@@H](O)[C@H](O)[C@H]2O)nn1C(C)C` [REMOGLIFLOZIN], in data set [19], the EC50 was found to be 14 nM and the Ki was 12.4 nM. Also, the Ratio in [23] came to 365.
With `CCNC(=O)c1c(O)c(Cc2ccc(OC)cc2)cc([C@@H]2O[C@H](CO)[C@@H](O)[C@H](O)[C@H]2O)c1O`, the EC50 in data set [19] turned out to be 500 nM.
Take `COc1ccc(Cc2ccccc2O[C@@H]2O[C@H](CO)[C@@H](O)[C@H](O)[C@H]2O)cc1` [SERGLIFLOZIN A]: in data set [19], the concentration giving a half-maximal response (EC50) was 9 nM and the inhibitory constant (Ki) turned out to be 2.4 nM. For the same compound, the Ratio in data set [23] amounted to 296.

(Values after ChEMBL document CHEMBL1153320, “Development of the renal glucose reabsorption inhibitors: a new mechanism for the pharmacotherapy of diabetes mellitus type 2” (J Med Chem, 2009).)
